From patent US10105343B2, “Cannabis based compositions and methods of treating hypertension” (KUBBY PATENT AND LICENSES, LIMITED LIABILITY COMPANY, priority 2010, dated 2018) come the findings set out here.

The data set relates to hypertension. Kind of data set: Inventor's own case: control of hypertension in adrenal cancer (anecdotal patient report). The class given is in vivo, human. The conditions noted are these: single patient (the inventor). The source says: In 1999, this inventor's doctors told them that after completing extensive medical tests at the University of Southern California's School of Medicine their prognosis was poor. According to Dr. Vincent DeQuattro, a USC professor and world authority on adrenal cancer, their blood contained deadly levels of adrenaline, more than enough to kill anyone else.
Nearly everyone else who has ever had the malignant form of the inventor's disease has died within a few years. The inventor credits their survival, now 35 years since their diagnosis, to medical marijuana, something DeQuattro considered a “medical miracle.” Dr. DeQuattro has written that the inventor could suffer a heart attack or stroke if deprived of marijuana and that no other form of therapy is available.
Despite the seriousness and dramatic dangers of their disease, a person was arrested and jailed for using the only medicine that worked for them. During their first few days of incarceration, they experienced excruciating pain, a vicious high blood-pressure crisis, passed blood in their urine and over a period of 60 days, and lost 33 pounds.
That's when […] started to experiment with lozenges to see if […] could create a natural cannabis based lozenge that would control hypertension, without undesirable side effects.
This led the Inventor to the development that is taught in this invention.

In the case of `CCCCCc1cc(O)c2c(c1)OC(C)(C)[C@@H]1CCC(C)=C[C@@H]21` [Marinol, tetrahydrocannabinol], the undesirable side effects result was “constant nausea”. Also, the controlling hypertension entry (adrenal cancer with deadly adrenaline levels) was “extremely effective”. Also, the “substitute for whole cannabis in treating the inventor's otherwise fatal disease” value (during incarceration) is recorded as “acceptable, if not ideal, substitute”.
